For one assay, the system named is HL-60. Briefly: Cytotoxicity against human HL-60 cells assessed as cell growth inhibition incubated for 48 hrs by MTS assay. Type of assay: functional, cell-based. The settings on record: HL-60, 48 h. Background: Tetrazolium dyes change colour on reduction, which living cells bring about.
The subject of a further assay is SW480. Briefly: Cytotoxicity against human SW480 cells assessed as cell growth inhibition incubated for 48 hrs by MTS assay. Type of assay: functional, cell-based. The settings on record: SW480, 48 h.

The values below come from ChEMBL document CHEMBL5137041, “Total Syntheses and Cytotoxicity Evaluation of Coryaurone A and Representative Analogues” (J Nat Prod, 2022).

Structures are written as SMILES.

The term IC50 denotes the concentration needed to halve the response being measured. In the case of `CC(C)(O)[C@H]1Cc2c(ccc3c2O/C(=C\c2ccc(O)c(O)c2)C3=O)O1`, the concentration for half-maximal inhibition (IC50) was 18 µM with HL-60 and 13 µM with SW480.

For `CC(C)(O)[C@H]1Cc2c(ccc3c2O/C(=C\c2cccc4cccnc24)C3=O)O1`, the IC50 with HL-60 and in the assay on SW480 was above 40 µM throughout.

Consider `CC(C)(O)[C@H]1Cc2c(ccc3c2O/C(=C\c2ccc(Cl)cc2)C3=O)O1`, for which the IC50 was above 40 µM in the assay with HL-60 and 7.7 µM with SW480.

Consider `COc1ccc(/C=C2\Oc3c(ccc4c3C[C@H](C(C)(C)O)O4)C2=O)cc1`, for which the 50% inhibitory concentration (IC50) in the assay with HL-60 and in the assay on SW480 was above 40 µM throughout.

Take `CC(C)(O)[C@H]1Cc2c(ccc3c2O/C(=C\c2ccc(O)c(Cl)c2)C3=O)O1`: the IC50 is 14 µM in the assay with HL-60 and 35 µM in the assay with SW480.

As for `CC(C)(O)[C@H]1Cc2c(ccc3c2O/C(=C\c2ccco2)C3=O)O1`, the IC50 with HL-60 stood at 28 µM; in the assay on SW480, 39 µM.

For the molecule `CC(C)(O)[C@H]1Cc2c(ccc3c2OCC3=O)O1`, the half-maximal inhibitory concentration (IC50) in the assay on HL-60 and with SW480 was above 40 µM throughout.

With `CC(C)(O)[C@H]1Cc2c(ccc3c2OC(Cc2ccc(O)c(O)c2)C3)O1` (stereo not given in full), the half-inhibitory concentration (IC50) with HL-60 and in the assay on SW480 was above 40 µM each time.

For the molecule `CC(C)(O)[C@H]1Cc2c(ccc3c2O/C(=C\c2ccc(O)c(C(=O)O)c2)C3=O)O1`, the half-maximal inhibitory concentration (IC50) with HL-60 and in the assay on SW480 was above 40 µM throughout.

Take `Cc1cc(/C=C2\Oc3c(ccc4c3C[C@H](C(C)(C)O)O4)C2=O)ccc1O`: the IC50 with HL-60 is above 40 µM; with SW480, 11 µM.

Take `CC(C)(O)[C@H]1Cc2c(ccc3c2O/C(=C\c2ccc(O)cc2)C3=O)O1`: the IC50 in the assay with HL-60 and in the assay with SW480 was above 40 µM each time.

Turning to `COc1ccc(/C=C2\Oc3c(ccc4c3C[C@H](C(C)(C)O)O4)C2=O)cc1O`, the IC50 in the assay on HL-60 was determined as 3.9 µM; in the assay with SW480 it was 20 µM.

For the molecule `CC(C)(O)[C@H]1Cc2c(ccc3c2O/C(=C\c2ccc(C(F)(F)F)cc2)C3=O)O1`, the half-inhibitory concentration (IC50) with HL-60 was 16 µM; in the assay with SW480, above 40 µM.

Consider `CC(C)(O)[C@H]1Cc2c(ccc3c2O/C(=C\c2ccccc2)C3=O)O1`, for which the IC50 in the assay on HL-60 and with SW480 was above 40 µM throughout.

`CC(C)(O)[C@H]1Cc2c(ccc3c2O/C(=C\c2cc([N+](=O)[O-])ccc2O)C3=O)O1`: the results for the IC50 in the assay with HL-60 and with SW480 were 12 µM and 23 µM, respectively.

Consider `CC(C)(O)[C@H]1Cc2c(ccc3c2O/C(=C\c2ccc([N+](=O)[O-])cc2)C3=O)O1`, for which the results for the IC50 with HL-60 and in the assay on SW480 were above 40 µM and 9.2 µM, respectively.

Regarding `CC(C)(O)[C@H]1Cc2c(ccc3c2O/C(=C\c2ccc4[nH]ccc4c2)C3=O)O1`, the IC50 in the assay with HL-60 and with SW480 was above 40 µM in each case.

As to `CC(C)(O)[C@H]1Cc2c(ccc3c2O/C(=C\c2cccs2)C3=O)O1`, the IC50 in the assay with HL-60 and in the assay on SW480 was above 40 µM throughout.

For `COc1cc(/C=C2\Oc3c(ccc4c3C[C@H](C(C)(C)O)O4)C2=O)cc(OC)c1OC`, the values for the IC50 in the assay with HL-60 and in the assay with SW480 were 22 µM and above 40 µM, respectively.

Turning to `CC(C)=CCc1c(O)ccc2c1O/C(=C\c1ccc(O)c(O)c1)C2=O` [LICOAGROAURONE], the concentration for half-maximal inhibition (IC50) with HL-60 is 19 µM; in the assay on SW480, 8.2 µM.
